Reference: ChEMBL document CHEMBL1152929, “Dapholdhamines A-D, alkaloids from Daphniphyllum oldhami” (J Nat Prod, 2009)
The source made the active and inactive calls.

Tests used:
Assay type in all cases: functional, cell-based
HCT-116 = experiment: Cytotoxicity against human HCT116 cells
HL-60 = experiment: Cytotoxicity against human HL60 cells
HT-29 = experiment: Cytotoxicity against human HT-29 cells
SW480 = experiment: Cytotoxicity against human SW480 cells
KB = experiment: Cytotoxicity against human KB cells
K562 = experiment: Cytotoxicity against human K562 cells

Measured: Activity

COC(=O)c1c2ccoc3c-2c2c1C(=O)[C@]1(O)C[C@@]4(O)N(C[C@@H](CC3)[C@@]24C)C[C@H]1C
inactive: HCT-116 | HL-60 | HT-29 | SW480 | KB | K562

CC(C)[C@H]1CC[C@@]2(C)[C@H]3C[C@@H]4[C@H]5CCC[C@@]4(O)[C@@]2(CCC(=O)O)[C@@H]1N5C3
inactive: HCT-116 | HL-60 | HT-29 | SW480 | KB | K562

C[C@@H]1CN2C3[C@@H]4CC[C@@]35CCC[C@H]5[C@@]3(CCC(=O)O)[C@H]2[C@]1(O)CC[C@@]43C
inactive: HCT-116 | HL-60 | HT-29 | SW480 | KB | K562

COC(=O)c1c2ccoc3c-2c2c1C(=O)[C@]1(O)CC4(CC(C)=O)N(C[C@@H](CC3)[C@@]24C)C[C@H]1C
inactive: HCT-116 | HL-60 | HT-29 | SW480 | KB | K562
